Patent publication US10940139B2, “Compounds that interact with the Ras superfamily for the treatment of cancers, inflammatory diseases, rasopathies, and fibrotic disease” (Shy Therapeutics LLC, priority 2017, dated 2021)

Columns and labels:
[1] = system: IL6 production in RAW 264.7 macrophage cell line; experiment: Mouse IL6 quantification assay (LPS-stimulated macrophages, ELISA); format: cell-based; conditions: RAW264.7, RAW 264.7 murine leukemia virus transformed macrophage cell lines, LPS stimulation, read-out: IL-6 % Inhibition at 30 μM
[2] = system: TNFα production in RAW 264.7 macrophage cell line; experiment: Mouse TNF alpha quantification assay (LPS-stimulated macrophages, ELISA); format: cell-based; conditions: RAW264.7, RAW 264.7 murine leukemia virus transformed macrophage cell lines, LPS stimulation, read-out: TNF-α % Inhibition at 30 μM

Compound	inhibition at 30 µM [1] [%]	inhibition at 30 µM [2] [%]
CN(C)CCOc1cccc(-c2csc3c(O)nc(-c4ccccn4)nc23)c1 [drawing 2323]	76 to 100	76 to 100
Cn1ccnc1-c1nc(O)c2c(-c3ccccc3)c(-c3ccccc3)sc2n1 [drawing 2363]	1 to 25	26 to 50
CC(OCC(F)(F)F)C(=O)Nc1nnc(-c2ccccn2)[nH]1 (stereo not shown) [drawing 1948]	0	1 to 25
CC(c1ccccc1)N1CCN(C(=O)c2csc3c(O)nc(-c4ccccn4)nc23)CC1 (stereo not shown) [drawing 2215]	51 to 75	0
O=C(c1cocn1)N1CCCc2c(O)nc(-c3ccccn3)nc21 [drawing 2081]	1 to 25	1 to 25
COCC1CCN(C(=O)c2csc3c(O)nc(-c4ccccn4)nc23)CC1 [drawing 2102]	76 to 100	1 to 25
Oc1nc(-c2ccccn2)nc2c(-c3ccc(CN4CCOCC4)cc3)csc12 [drawing 2274]	26 to 50	0
COc1ccnc(-c2nc(O)c3c(C(F)(F)F)csc3n2)c1 [drawing 2226]	51 to 75	1 to 25
Cn1ccnc1-c1nc(O)c2scc(-c3ccccc3)c2n1 [drawing 2441]	76 to 100	51 to 75
COc1cnc(CNC(=O)c2csc3nc(-c4ccccn4)nc(N)c23)[nH]c1=O [drawing 2344]	1 to 25	1 to 25
O=C(Nc1nc(-c2ccccn2)cs1)C1COc2ccccc2O1 (stereo not shown) [drawing 2007]	0	1 to 25
Cc1cc(OC(F)F)ccc1-c1csc2c(O)nc(-c3ccccn3)nc12 [drawing 2270]	76 to 100	0
COc1cccc(-c2csc3c(O)nc(-c4ccccn4)nc23)c1 [drawing 2264]	76 to 100	26 to 50
CN(CCc1ccncc1)C(=O)c1csc2c(O)nc(-c3ccccn3)nc12 [drawing 2114]	51 to 75	0
OCCOCCNc1nc(-c2ccccn2)nc2scc(-c3ccccc3)c12 [drawing 2044]	1 to 25	1 to 25
CCOc1cc(S(=O)(=O)N(Cc2ccccc2)Cc2ccccc2)c(OCC)cc1C [drawing 2059]	1 to 25	1 to 25
O=C(COCc1ccnc(O)c1)Nc1nc(-c2ccccn2)nc2sccc12 [drawing 2250]	26 to 50	0
O=C(CN1CCN(c2nc(-c3ccccn3)nc3scc(-c4ccccc4)c23)CC1)NC1CC1 [drawing 2158]	76 to 100	26 to 50
Cn1ccnc1-c1nc(O)c2scc(-c3ccccc3Cl)c2n1 [drawing 2442]	51 to 75	1 to 25
CN(CC(=O)N1CCCc2c(O)nc(-c3ccccn3)nc21)S(=O)(=O)c1ccccc1 [drawing 2074]	1 to 25	0
OCC1(c2ccc(-c3nc(-c4ccccn4)nc(-c4ccc(C5(CO)CC5)cc4)c3Oc3ccccc3)cc2)CC1 [drawing 2359]	0	0
CN(C)Cc1ccc(-c2csc3c(O)nc(-c4ccccn4)nc23)cc1F [drawing 2238]	76 to 100	51 to 75

Compound	inhibition at 30 µM [1] [%]	inhibition at 30 µM [2] [%]
Cc1nc(-c2ccccn2)nc(O)c1CCC(=O)NC1CCc2ccccc21 (stereo not shown) [drawing 2033]	26 to 50	26 to 50
CC(Oc1ccccc1Cl)C(=O)Nc1nnc(-c2ccccn2)[nH]1 (stereo not shown) [drawing 1937]	26 to 50	1 to 25
Cc1ccc(-c2ccc(Oc3ccc(C(F)(F)F)cn3)c(C)c2)cc1 [drawing 2056]	0	1 to 25
COc1cc(OC)cc(N2CCN(C(=O)c3csc4c(O)nc(-c5ccccn5)nc34)CC2)c1 [drawing 2183]	26 to 50	1 to 25
Cc1cncc(-c2csc3c(O)nc(-c4ccccn4)nc23)c1 [drawing 2305]	76 to 100	1 to 25
OCC1(c2ccc(-c3nc(-c4ccccn4)nc(O)c3Oc3ccccc3)cc2)CC1 [drawing 2361]	0	26 to 50
O=C(CNc1nc(-c2ccccn2)nc2scc(-c3ccccc3)c12)NC1CC1 [drawing 2149]	26 to 50	26 to 50
COCCCC1CCN(C(=O)c2csc3c(O)nc(-c4ccccn4)nc23)CC1 [drawing 2104]	51 to 75	1 to 25
COCCN(CCOC)c1nc(-c2ccccn2)nc2scc(C(=O)NCCc3ccc(OC)nc3)c12 [drawing 2206]	1 to 25	0
O=C(Nc1nnc(-c2ccccn2)[nH]1)C1CCCN(c2ncccn2)C1 (stereo not shown) [drawing 1969]	0	1 to 25
COCCNc1nc(-c2nccn2C)nc2sc(-c3ccccc3Cl)c(-c3ccccc3)c12 [drawing 2408]	1 to 25	1 to 25
Nc1nc(O)c2scc(C(=O)N(CCO)CCOCCO)c2n1 [drawing 2096]	1 to 25	0
O=C(c1csc2c(O)nc(-c3ccccn3)nc12)N1CCNC(c2ccc(F)cc2)C1 (stereo not shown) [drawing 2217]	1 to 25	0
CC(C)(C)c1ccc(-c2csc3c(O)nc(-c4ccccn4)nc23)cc1 [drawing 2240]	76 to 100	76 to 100
O=C(c1csc2c(O)nc(-c3cccnc3)nc12)N1CCNC(Cc2cccc(F)c2)C1 (stereo not shown)	26 to 50	1 to 25
Nc1nc(-c2ccccn2)nc2c(Br)csc12 [drawing 2284]	26 to 50	0
COC(=O)C(C)CN(Cc1cc(Br)ccc1[N+](=O)[O-])C1CC1 (stereo not shown) [drawing 2063]	26 to 50	0
O=C(Nc1nnc(-c2ccccn2)[nH]1)C1CCCC(C(F)(F)F)C1 (stereo not shown) [drawing 1972]	1 to 25	0
COc1nc(-c2cn(C)cn2)nc2sc(-c3ccncc3)c(-c3ccccc3)c12 [drawing 2358]	51 to 75	1 to 25
N#Cc1ccc(N2CCN(C(=O)c3csc4c(O)nc(-c5ccccn5)nc34)CC2)cc1 [drawing 2182]	26 to 50	0
COCCNc1nc(-c2nccn2C)nc2sc(-c3ccccc3)c(-c3ccc(OC)cc3)c12 [drawing 2416]	76 to 100	51 to 75
CNC(=O)CN1CCN(c2nc(-c3ccccn3)nc3scc(-c4ccccc4)c23)CC1 [drawing 2144]	1 to 25	1 to 25

Compound	inhibition at 30 µM [1] [%]	inhibition at 30 µM [2] [%]
O=C(c1csc2c(O)nc(-c3ccccn3)nc12)N1CCOC(c2nccs2)C1 (stereo not shown) [drawing 2171]	51 to 75	1 to 25
O=C(CCc1cnn(-c2ccccc2)c1)Nc1nnc(-c2ccccc2)[nH]1	26 to 50	1 to 25
COCC1CCN(C(=O)c2csc3c(O)nc(N)nc23)CC1 [drawing 2090]	1 to 25	1 to 25
CC1(O)CCN(C(=O)c2csc3c(O)nc(-c4ccccn4)nc23)CC1 [drawing 2110]	51 to 75	0
Oc1nc(-c2ccccn2)nc2c(-c3cc(C(F)(F)F)ccc3F)csc12 [drawing 2303]	76 to 100	1 to 25
Oc1nc(-c2ccccn2)nc2c(-c3cccc4c3OCO4)csc12 [drawing 2242]	51 to 75	51 to 75
O=C(COc1ccc2c(c1)CCC2)Nc1nnc(-c2ccccn2)[nH]1 [drawing 1978]	1 to 25	0
Cc1c(C(=O)Nc2nnc(-c3ccccn3)[nH]2)oc2ccccc12 [drawing 1936]	0	1 to 25
OC1CCN(c2nc(-c3ccccn3)nc3scc(-c4ccccc4)c23)CC1 [drawing 2156]	26 to 50	1 to 25
O=C(Nc1nnc(-c2ccccn2)[nH]1)c1csc(-c2ccco2)n1 [drawing 1994]	51 to 75	0
COc1cncc(CCNC(=O)c2csc3nc(-c4ccccn4)nc(N4CCOCC4)c23)c1	1 to 25	0
O=S(=O)(CCc1ccccc1)N1CCCc2c(O)nc(-c3ccccn3)nc21 [drawing 2083]	26 to 50	0
Oc1nc(-c2ccccn2)nc2c(C3CC3)csc12 [drawing 2345]	1 to 25	1 to 25
Oc1nc(-c2ccccn2)nc2c(-c3cncc(C(F)(F)F)c3)csc12 [drawing 2304]	1 to 25	0
Nc1nc(-c2ccccn2)nc2ccsc12 [drawing 2227]	0	1 to 25
COc1ccc(C2CN(C(=O)c3csc4c(O)nc(-c5ccccn5)nc34)CCO2)cc1 (stereo not shown) [drawing 2193]	76 to 100	1 to 25
Cc1ccccc1N1CCN(C(=O)c2csc3c(O)nc(-c4ccccn4)nc23)CC1 [drawing 2168]	51 to 75	1 to 25
c1ccc(-c2csc3nc(-c4ccccn4)nc(N4CCN(CC5CCCO5)CC4)c23)cc1 (stereo not shown) [drawing 2140]	51 to 75	26 to 50
O=C(c1csc2c(O)nc(-c3ccccn3)nc12)N1CC2CC1CN2c1ccccc1 (stereo not shown) [drawing 2231]	51 to 75	0
Cc1sc2c(N)nc(-c3ccccn3)nc2c1Br [drawing 2285]	1 to 25	0
COC1CCN(c2nc(-c3nccn3C)nc3sc(-c4ccccc4)c(-c4ccccc4)c23)C1 (stereo not shown) [drawing 2398]	76 to 100	76 to 100
